Source: patent publication US7476764B2, “Phenylcarboxyamides as beta-secretase inhibitors” (Bristol-Myers Squibb Company, priority 2005, dated 2009)
pIC50: −log10 of the molar value. Counter-ions that a name gives are not always drawn. Like-named read-outs stand apart in the source and are kept apart here.

Molecular target: T1, BACE1 enzyme (Homo sapiens, UniProt P56817)
T1 construct: The HEK293-9B.A1 cell line, which overexpresses the BACE1 enzyme, was derived from HEK293 cells; endogenous in cells; washed 48,000 x g pellet of the cell homogenate
Assay: Radioligand displacement assay with a radiolabeled BACE inhibitor on HEK293-9B.A1 cell homogenate
Assay type: binding
Method: Radioligand displacement assays with a radiolabeled BACE inhibitor (WO 2004 013098, compound 3, where the methoxy group is substituted for C(^3H)3) were carried out using standard methods (Keen, M. (1999) in Receptor Binding Techniques (Walker, J. M. ed) p. 106 Humana Press, Totowa, N.J.). The HEK293-9B.A1 cell line, which overexpresses the BACE1 enzyme, was derived from HEK293 cells (Simmons, N. L. (1990) A cultured human renal epitheloid cell line responsive to vasoactive intestinal peptide. Exp. Physiol. 75:309-19.) by RAGE™ (Harrington, J. J. et al. (2001) Creation of genome-wide protein expression libraries using random activation of gene expression. Nat. Biotechnol. 19:440-5; U.S. Pat. Nos. 6,410,266 and 6,361,972). T225 flask cultures of HEK293-9B.A1 were grown to 80% confluency in DMEM supplemented with 2 mM L-glutamine, 10 μg/ml penicillin, 10 μg/ml streptomycin, 3 μg/ml puromycin, 100 nM methotrexate, and 10% fetal bovine serum (Invitrogen, Carlsbad, Calif.), harvested, and resuspended at 2×10^8 cells per 10 ml of lysis buffer consisting of 50 mM HEPES pH 7.0 containing a protease inhibitor cocktail of AEBSF 104 μM, aprotinin 80 nM, leupeptin 2 μM, bestatin 4 μM, pepstatin A 1.5 μM, and E-64 1.4 μM (0.1% of protease inhibitor cocktail P8340, Sigma-Aldrich, St. Louis, Mo.) at 4° C. The resuspended cells were homogenized using a Polytron (Brinkman, Westbury, N.Y.) at setting 6 for 10 sec., then centrifuged at 48,000×g for 10 min. The resulting pellet was washed by repeating the resuspension, homogenization and centrifugation steps. The final pellet was resuspended in buffer at 4° C. to yield a total protein concentration of 5 mg/ml, then aliquots were frozen in liquid nitrogen for further storage at −70° C. Immediately before carrying out a binding assay, an aliquot of cell homogenate was thawed and diluted to a concentration of 100 μg/ml in assay buffer consisting of 50 mM HEPES pH 5.0 and 0.1% CHAPSO. Assays were initiated in polypropylene 96-well plates (Costar, Cambridge, Mass.) by the addition of 200 μl of cell homogenate to 50 μl of assay buffer containing 1 nM radioligand (WO 2004 013098, compound 3, where the methoxy group is substituted for C(^3H)3: 80 Ci/mMol) and various concentrations of unlabelled compounds, and incubated for 1.5 hr. at 25° C. Separation of bound from free radioligand was by filtration on GFF glass fiber filters (Innotech Biosystems International, Lansing, Mich.) using an Innotech cell harvester.

[1] = displacement of 1 nM tritiated radioligand, HEK293-9B.A1 homogenate, pH 5.0, 1.5 hr at 25° C., read-out: Activity Rating (activity based on IC50 values)

T1 sequence (P56817 46-501): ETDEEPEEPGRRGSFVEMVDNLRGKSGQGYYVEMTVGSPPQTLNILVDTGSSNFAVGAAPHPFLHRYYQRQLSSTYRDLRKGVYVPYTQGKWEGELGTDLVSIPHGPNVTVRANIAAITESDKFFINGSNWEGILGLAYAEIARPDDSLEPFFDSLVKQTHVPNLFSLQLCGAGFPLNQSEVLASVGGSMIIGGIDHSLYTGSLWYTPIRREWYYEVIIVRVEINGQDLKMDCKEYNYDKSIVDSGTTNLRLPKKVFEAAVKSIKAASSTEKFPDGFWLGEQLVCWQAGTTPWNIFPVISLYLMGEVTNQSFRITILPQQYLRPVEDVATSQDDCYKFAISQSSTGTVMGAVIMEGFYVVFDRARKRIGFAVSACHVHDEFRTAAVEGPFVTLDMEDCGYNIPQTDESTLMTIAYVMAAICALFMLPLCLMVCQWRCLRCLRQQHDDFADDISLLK

Compound | pIC50 [1] | pIC50
COc1cccc(CNC[C@@H](O)[C@H](Cc2cc(F)cc(F)c2)NC(=O)c2cc(/C(C)=N/OCC(C)C)cc(N3CCCCS3(=O)=O)c2)c1 [Example 27, N-[(1S,2R)-1-(3,5-difluoro-benzyl)-2-hydroxy-3-(3-methoxy-benzylamino)-propyl]-3-(1,1-dioxo-1λ^6-[1,2]thiazinan-2-yl)-5-{1-[(E)-isobutoxyimino]-ethyl}-benzamide TFA salt] | 6.00 to 7.00 | 
C=CCO/N=C(\C)c1cc(C(=O)N[C@@H](Cc2cc(F)cc(F)c2)[C@H](O)CNCc2cccc(OC)c2)cc(N(c2ccccc2)S(C)(=O)=O)c1 [Example 42, N-((2S,3R)-4-(3-methoxybenzylamino)-1-(3,5-difluorophenyl)-3-hydroxybutan-2-yl)-3-((E)-1-(allyloxyimino)ethyl)-5-(N-phenylmethan-10-ylsulfonamido)benzamide] | > 7.00 | 
COc1cccc(CNC[C@@H](O)[C@H](Cc2cc(F)cc(F)c2)NC(=O)c2cc(C(C)=O)cc(N(c3ccccc3)S(C)(=O)=O)c2)c1 [Example 36, N-((2S,3R)-4-(3-methoxybenzylamino)-1-(3,5-difluorophenyl)-3-hydroxybutan-2-yl)-3-acetyl-5-(N-phenylmethan-10-ylsulfonamido)benzamide TFA salt] | > 7.00 | 
CCCN(C)C(=O)c1cc(C(=O)N[C@@H](Cc2cc(F)cc(F)c2)[C@H](O)CNCc2cccc(OC)c2)cc(/C(C)=N/OC)c1 [Example 10, N^1-((2S,3R)-4-(3-methoxybenzylamino)-1-(3,5-difluorophenyl)-3-hydroxybutan-2-yl)-5-((E)-1-(methoxyimino)ethyl)-N^3-methyl-N^3-propylisophthalamide hydrochloride] | > 7.00 | 
COc1cccc(CNC[C@@H](O)[C@H](Cc2cc(F)cc(F)c2)NC(=O)c2cc(C(C)=O)cc(C(=O)N[C@H](C)c3ccccc3)c2)c1 [Example 44, N^1-((2S,3R)-4-(3-methoxybenzylamino)-1-(3,5-difluorophenyl)-3-hydroxybutan-2-yl)-5-acetyl-N^3-((R)-1-phenylethyl)isophthalamide TFA salt] | > 7.00 | 
CCCN(CCC)C(=O)c1cc(C(=O)N[C@@H](Cc2cc(F)cc(F)c2)[C@H](O)CNCc2cccc(OC)c2)cc(/C(C)=N/OCC(C)C)c1 [Example 6, N^1-((2S,3R)-4-(3-methoxybenzylamino)-1-(3,5-difluorophenyl)-3-hydroxybutan-2-yl)-5-((E)-1-(isobutoxyimino)ethyl)-N^3,N^3-dipropylisophthalamide TFA salt] | > 7.00 | 
COc1cccc(CNC[C@@H](O)[C@H](Cc2cc(F)cc(F)c2)NC(=O)c2cc(/C(C)=N/OCc3ccccc3)cc(S(C)(=O)=O)c2)c1 [Example 18, N-((2S,3R)-4-(3-methoxybenzylamino)-1-(3,5-difluorophenyl)-3-hydroxybutan-2-yl)-3-((E)-1-(benzyloxyimino)ethyl)-5-(methylsulfonyl)benzamide TFA salt] | 6.00 to 7.00 | 
C=CCO/N=C(\C)c1cc(C(=O)N[C@@H](Cc2cc(F)cc(F)c2)[C@H](O)CNCc2cccc(OC)c2)cc(S(C)(=O)=O)c1 [Example 21, N-((2S,3R)-4-(3-methoxybenzylamino)-1-(3,5-difluorophenyl)-3-hydroxybutan-2-yl)-3-((E)-1-(allyloxyimino)ethyl)-5-(methylsulfonyl)benzamide TFA salt] | 6.00 to 7.00 | 
CO/N=C(\C)c1cc(C(=O)N[C@@H](Cc2cc(F)cc(F)c2)[C@H](O)CNCc2cccc(OC)c2)cc(S(C)(=O)=O)c1 [Example 17, N-((2S,3R)-4-(3-methoxybenzylamino)-1-(3,5-difluorophenyl)-3-hydroxybutan-2-yl)-3-((E)-1-(methoxyimino)ethyl)-5-(methylsulfonyl)benzamide TFA salt] | 6.00 to 7.00 | 
C=CCO/N=C(/C)c1cc(C(=O)NC(C)c2ccc(F)cc2)cc(C(=O)N[C@@H](Cc2cc(F)cc(F)c2)[C@H](O)CNCc2cccc(OC)c2)c1 (stereo partly drawn) [Example 49, N^1-((2S,3R)-4-(3-methoxybenzylamino)-1-(3,5-difluorophenyl)-3-hydroxybutan-2-yl)-5-((Z)-1-(allyloxyimino)ethyl)-N^3-(1-(4-fluorophenyl)ethyl)isophthalamide TFA salt] | 6.00 to 7.00 | 
CCCO/N=C(\C)c1cc(C(=O)N[C@@H](Cc2cc(F)cc(F)c2)[C@H](O)CNCc2cccc(OC)c2)cc(N2CCCCS2(=O)=O)c1 [Example 26, N-[(1S,2R)-1-(3,5-difluoro-benzyl)-2-hydroxy-3-(3-methoxy-benzylamino)-propyl]-3-(1,1-dioxo-1λ^6-[1,2]thiazinan-2-yl)-5-{1-[(E)-propoxyimino]-ethyl}-benzamide TFA salt] | > 7.00 | 
COc1cccc(CNC[C@@H](O)[C@H](Cc2cc(F)cc(F)c2)NC(=O)c2cc(C(=O)N[C@H](C)c3ccccc3)cc(C(C)O)c2)c1 (stereo partly drawn) [Example 45, N^1-((2S,3R)-4-(3-methoxybenzylamino)-1-(3,5-difluorophenyl)-3-hydroxybutan-2-yl)-5-(1-hydroxyethyl)-N^3-((R)-1-phenylethyl)isophthalamide TFA salt] |  | > 7.00
CCCN(CCC)C(=O)c1cc(C(=O)N[C@@H](Cc2cc(F)cc(F)c2)[C@H](O)CNCc2cccc(OC)c2)cc(/C(C)=N/OC)c1 [Example 3, N^1-((2S,3R)-4-(3-methoxybenzylamino)-1-(3,5-difluorophenyl)-3-hydroxybutan-2-yl)-5-((E)-1-(methoxyimino)ethyl)-N^3,N^3-dipropylisophthalamide TFA salt] | > 7.00 | 
C=CCO/N=C(/C)c1cc(C(=O)N[C@@H](Cc2cc(F)cc(F)c2)[C@H](O)CNCc2cccc(OC)c2)cc(C(=O)N[C@H](C)c2ccccc2)c1 [Example 46, N^1-((2S,3R)-4-(3-methoxybenzylamino)-1-(3,5-difluorophenyl)-3-hydroxybutan-2-yl)-5-((Z)-1-(allyloxyimino)ethyl)-N^3-((R)-1-phenylethyl)isophthalamide TFA salt] |  | > 7.00
CCCO/N=C(\C)c1cc(C(=O)N[C@@H](Cc2cc(F)cc(F)c2)[C@H](O)CNCc2cccc(OC)c2)cc(N(c2ccccc2)S(C)(=O)=O)c1 [Example 43, N-((2S,3R)-4-(3-methoxybenzylamino)-1-(3,5-difluorophenyl)-3-hydroxybutan-2-yl)-3-(N-phenylmethan-10-ylsulfonamido)-5-((E)-1-(propoxyimino)ethyl)benzamide] | > 7.00 | 
COc1cccc(CNC[C@@H](O)[C@H](Cc2cc(F)cc(F)c2)NC(=O)c2cc(C(C)O)cc(N(C)S(C)(=O)=O)c2)c1 (stereo partly drawn) [Example 35, N-((2S,3R)-4-(3-methoxybenzylamino)-1-(3,5-difluorophenyl)-3-hydroxybutan-2-yl)-3-(1-hydroxyethyl)-5-(N-methylmethan-2-ylsulfonamido)benzamide TFA salt] | > 7.00 | 
COc1cccc(CNC[C@@H](O)[C@H](Cc2cc(F)cc(F)c2)NC(=O)c2cc(C(C)O)cc(N(c3ccccc3)S(C)(=O)=O)c2)c1 (stereo partly drawn) [Example 40, N-((2S,3R)-4-(3-methoxybenzylamino)-1-(3,5-difluorophenyl)-3-hydroxybutan-2-yl)-3-(1-hydroxyethyl)-5-(N-phenylmethan-10-ylsulfonamido)benzamide] | > 7.00 | 
